Where two headings read alike, the source gives them in different places.
Key:
[1] = In vivo pharmacokinetic assessment, colon; parameters: species or system CD-1 mice; details: for tmax: colon, naïve mice
[2] = In vivo pharmacokinetic assessment, liver; parameters: species or system CD-1 mice
From the text: In Vivo Pharmacokinetic Assessments in Rodents
The livers will be blotted and weighed.

DSS-treated mice = test: 8-day efficacy study in DSS model (therapeutic) of ulcerative colitis; format: in vivo, C57Bl/6 mice; details: oral 40 mg/kg
Description: Animals. Female C57Bl/6 mice (Charles River, St-Constant, Qc), weighting 16-19 g at delivery were used for this study. Following arrival in the animal facility, all animals were subjected to a general health evaluation. An acclimation period of 7-14 days was allowed before the beginning of the study.
Oral dosing of the test article and the vehicle. From Day 5 to Day 8, nacellins and the vehicle were administered as a single slow bolus (over approximately 5 seconds) via oral route (p.o.), according to the procedure of administration of solution by gavage: the animal was firmly restrained. A bulb-tipped gastric gavage needle of 22G was passed through the side of the mouth and was advanced towards the oesophagus. The test articles and the vehicle were dosed orally at 5 mL/kg.
Intraperitoneal dosing of the test articles and the vehicle. On day 5, DATK32 antibody was administered in only on Day 5, as a single slow bolus (over approximately 5 seconds) via the i.p. route. […] Intraperitoneal administration was performed accordingly to the following procedure: the mouse was restrained manually and held with the head and body tilted downward. The tip of the needle (27 G) was inserted through the skin and just past the abdominal wall. A short pull back of the plunger of the syringe was done prior to administration of the solution to make sure that the syringe was not inserted in any abdominal organ (fluid would be pulled back into the syringe in this case).
Inflammation Score. Once the mouse was euthanized, the colon was collected and its length was measured. Lesion length was also measured. Colon inflammation was scored based on severity of oedema and ulceration.
Disease Activity Index (DAI) assessment. Body weight and DAI were measured on Day 5 in order to distribute DSS-treated animals in two uniform groups prior dosing. Specific symptoms associated to UC were scored based on the severity of each particular symptoms: 1—blood in stool (negative hemoccult, positive hemoccult, blood traces in stool visible, rectal bleeding); 2—stool consistency (normal, soft but still formed, very soft, diarrhea); 3—posture and fur (normal; ruffled fur; ruffled fur combined to slight hunched posture and slight dehydration; ruffled fur combined to hunched posture, dehydration and altered walking; moribund (euthanasia is mandatory before the animal reach this point). The overall DAI score was the sum of the three parameters (maximum score 9). Body weight measurement and DAI assessment were performed also on Day 8 to evaluate the effect of the treatments.

[3] = system: CD3+CD4+α4β7+ T lymphocytes; test: FACS analysis of T lymphocyte populations, 8-day DSS study; format: in vivo, C57Bl/6 mice; details: p.o. 40 mg/kg
From the text: Collection of samples. On Day 8, five hours after ET02451-01, ET02452-01 and vehicle dosing, the animals were euthanized by cardiac puncture under general anesthesia, according to the “Guide to the Care and Use of Experimental Animals” published by the CCAC. Blood was transferred in a Sarstedt tube containing EDTA. Mesenteric and peripheral (inguinal, auxiliary and brachial) lymph nodes were collected and transferred on ice in corresponding tubes containing cold PBS. Nodes were kept on ice until tissue preparation.
Cell population labeling. Blood was withdrawn by cardiac puncture and collected on EDTA-coated tubes. Mensenteric lymph nodes (MLN) and peripheral lymph nodes (PLN) were also collected. Mononuclear cells from the tissues will be isolated using density gradient (Lympholyte) and they were stained with fluorescent antibodies. […] After washes, cells were fixed using BD Fix Solution. Percentage of different subpopulations of T lymphocytes were then analysed using FACSCalibur cytometer. Antibodies employed were the same as listed for the single-dose PD studies above.

[4] = mouse, in vivo
Description: (§1) Oral bioavailability of test compounds was conducted by assessing plasma exposure of following one or two oral doses in mice and, in some cases, comparing said plasma exposure with that following a single intravenous dose of the same compound.
(§2) Body weights were recorded on the day of dosing.
(§3) Dosing: The formulation containing the test compound were administered p.o. by gavage with disposable feeding needles.
(§4) Sample processing/storage: All blood samples were transferred into K2EDTA tubes on wet ice and centrifuged within 5 min (3200×g for 5 min at 4° C.) to obtain plasma. Samples were stored frozen at −80° C. until bioanalysis.
(§5) Instrumentation: AB Sciex API 4000 Q-TRAP MS/MS system equipped with an Agilent LC system with a binary pump, a solvent degasser, a thermostatted column compartment, a CTC autosampler and a divert valve installed between the column and mass spectrometer inlet.

[5] = In vivo pharmacokinetic assessment, plasma; details: naïve mice
Description: as §1, §2, §3, §4, §5

CC(C)C[C@@H]1NC(=O)c2ccc(-c3ccc(N4CCNCC4)cc3)c(c2)CNC(=O)[C@@H]2CCCN2[C@H](C(=O)NC(C)(C)C)[C@H](C)NC(=O)[C@H]([C@@H](C)O)NC(=O)[C@H](CC(=O)O)NC1=O [ET02451]
tmax ([1]; single i.v. 5 mg/kg): 2.00 h
tmax ([1]; single p.o. 40 mg/kg): 2.00 h
oral bioavailability in colon ([1]; mouse, in vivo): ~100%
AUC0-inf ([1]; mouse, in vivo, iv, 5 mg/kg): 17140 ng·h/mL
AUC0-tlast ([1]; mouse, in vivo, iv, 5 mg/kg): 17109 ng·h/mL
MRT0-inf ([1]; mouse, in vivo, iv, 5 mg/kg): 3.43 h
half-life in colon ([1]; mouse, in vivo, po): greater than 21 hours
AUC0-inf ([1]; mouse, in vivo, po, 40 mg/kg): 145327 ng·h/mL
AUC0-tlast ([1]; mouse, in vivo, po, 40 mg/kg): 130746 ng·h/mL
MRT0-inf ([1]; mouse, in vivo, po, 40 mg/kg): 4.59 h
tmax ([2]; liver, single i.v. 5 mg/kg, naïve mice): 0.0833 h
bioavailability in the liver ([2]; mouse, in vivo): ~8%
main route of elimination ([2]; mouse, in vivo): hepatobiliary clearance
AUC0-inf ([2]; mouse, in vivo, iv, 5 mg/kg): 8460 ng·h/mL
AUC0-tlast ([2]; mouse, in vivo, iv, 5 mg/kg): 8289 ng·h/mL
MRT0-inf ([2]; mouse, in vivo, iv, 5 mg/kg): 2.00 h
half-life in liver ([2]; mouse, in vivo, po): ~8 h
AUC0-inf ([2]; mouse, in vivo, po, 40 mg/kg): 6054 ng·h/mL
AUC0-tlast ([2]; mouse, in vivo, po, 40 mg/kg): 6024 ng·h/mL
MRT0-inf ([2]; mouse, in vivo, po, 40 mg/kg): 2.11 h
tmax ([2]; mouse, in vivo, po, 40 mg/kg): 2.00 h
reduction of DAI score (DSS-treated mice; Day 5 to Day 8, Day 8 vs DSS+vehicle): 15%
lesion/colon length (DSS-treated mice; vehicle group 40%): 12%
reduction of lesion length (DSS-treated mice; vs control vehicle treated-group): significantly reduced the lesion length
CD3+CD4+α4β7+ cell population in mesenteric lymph nodes [3]: significant decrease
F ([4]; iv, 5 mg/kg): 100%
elimination half-life in plasma ([4]; po): ~0.5 h
oral bioavailability / absorption (in words) ([4]; po): significant absorption from the gut and systemic exposure following oral dosing
AUC0-tiast ([4]; po, 40 mg/kg): 686 ng·h/mL
F ([4]; po, 40 mg/kg): 11.0%
AUC0-tiast ([5]; single i.v. 5 mg/kg): 778 ng·h/mL
tmax ([5]; single i.v. 5 mg/kg): 4.98 min
Cmax ([5]; single p.o. 40 mg/kg): 4638 ng/mL
